Laboratory results as given in patent US7008636B2, “2,3,5-substituted biphenyls useful in the treatment of insulin resistance and hyperglycemia” (Wyeth, priority 1998, dated 2006).

O=C(O)COc1c(-c2ccccc2)cc(C(=O)NCCCCCCCCc2ccccc2)cc1-c1cc(Cl)cc(Cl)c1 [Example 27, [3,5-Dichloro-5′-(8-phenyl-octylcarbamoyl)-[1,1′;3′,1″]terphenyl-2′-yloxy]-acetic acid] showed a melting point of 82 to 83.1 °C.
CCCCCCCCCCCCNC(=O)c1cc(-c2cccc(Cl)c2)c(OCC(=O)O)c(-c2cccc(Cl)c2)c1 [Example 33, (3,3″-Dichloro-5′-dodecylcarbamoyl-[1,1′;3′,1″]terphenyl-2′-yloxy)-acetic acid] gave a melting point of 151 to 156 °C.
For CCCCCCCCCCCCNC(=O)c1cc(Br)c(OCC(=O)O)c(-c2cccc(Cl)c2)c1 [Example 34, (3-Bromo-3′-chloro-5-dodecylcarbamoyl-biphenyl-2-yloxy)-acetic acid], the melting point was > 100 °C (dec.).
Compound O=C(O)COc1c(-c2cccc(Cl)c2)cc(C(=O)NCCCCCCCCc2ccccc2)cc1-c1cccc(Cl)c1 [Example 35, [3,3″-Dichloro-5′-(8-phenyl-octylcarbamoyl)-[1,1′;3′,1″]terphenyl-2′-yloxy]-acetic acid] has a melting point of 165 to 167 °C.
O=C(O)COc1c(-c2ccccc2)cc([N+](=O)[O-])cc1-c1ccccc1 [Example 38, (5′-Nitro-[1,1′;3′,1″]terphenyl-2′-yloxy)-acetic acid] gave a melting point of 153.5 to 156 °C.
In the case of COc1cc(-c2ccccc2)c(OCC(=O)O)c(-c2ccccc2)c1 [Example 39, (5′-Methoxy-[1,1′;3′,1″]terphenyl-2′-yloxy)acetic acid], the melting point is reported as 143 to 145 °C.
In the case of O=C(O)COc1c(-c2ccccc2)cc(Br)cc1-c1ccccc1 [Example 40, (5′-Bromo-[1,1′;3′,1″]terphenyl-2′-yloxy)-acetic acid], the melting point is reported as > 50 °C (dec.).
With O=C(O)COc1c(-c2ccccc2)cc(-c2ccccc2)cc1-c1ccccc1 [Example 41, [(5′-Phenyl[1,1′:3′,1″-terphenyl]-2′-yl)oxy]acetic acid] the melting point was > 68 °C (dec.).
For O=C(O)COc1c(-c2ccccc2)cc2oc3ccccc3c2c1-c1ccccc1 [Example 42, (1,3-Diphenyl-dibenzofuran-2-yloxy)-acetic acid], the melting point was > 120 °C (dec.).
With O=C(O)COc1c(Br)cc2oc(C(=O)c3ccccc3)cc2c1Br [Example 43, (2-Benzoyl-4,6-dibromo-benzofuran-5-yloxy)acetic acid] the melting point was 179 to 181 °C.
Compound CCCCOc1cc(-c2ccccc2)c(OCC(=O)O)c(-c2ccccc2)c1 [Example 44, (5′-Butoxy-[1,1′;3′,1″]terphenyl-2′-yloxy)acetic acid] has a melting point of 92 to 94 °C.
CCCCCCCCOc1cc(-c2ccccc2)c(OCC(=O)O)c(-c2ccccc2)c1 [Example 45, (5′-Octyloxy-[1,1′;3′,1″]terphenyl-2′-yloxy)acetic acid] gave a melting point of 82 to 84 °C.
In the case of O=C(O)COc1c(-c2cccc(Cl)c2)cc(C(=O)NCCc2ccccn2)cc1-c1cccc(Cl)c1 [Example 52, [3,3″-Dichloro-5′-(2-pyridin-2-yl-ethylcarbamoyl)-[1,1′;3′,1″]terphenyl-2′-yloxy]acetic acid], the melting point is reported as > 94 °C (dec.).
In the case of O=C(O)COc1c(-c2cccc(Cl)c2)cc(C(=O)N(CCc2ccccc2)Cc2ccccc2)cc1-c1cccc(Cl)c1 [Example 53, [5′-(Benzyl-phenethyl-carbamoyl)-3,3″-Dichloro-[1,1′;3′,1″]terphenyl-2′-yloxy]acetic acid], the melting point is reported as > 67 °C (dec.).
For O=C(O)COc1c(-c2cccc(Cl)c2)cc(C(=O)NCCCCc2ccccc2)cc1-c1cccc(Cl)c1 [Example 54, [3,3″-Dichloro-5′-(4-phenyl-butylcarbamoyl)-[1,1′;3′,1″]terphenyl-2′-yloxy]acetic acid], the melting point was > 164 °C (dec.).
For O=C(O)COc1c(Br)cc(C(=O)N(CCc2ccccc2)Cc2ccccc2)cc1-c1cccc(Cl)c1 [Example 55, [5-(Benzyl-phenethyl-carbamoyl)-3-bromo-3′-chloro-biphenyl-2-yloxy]acetic acid], the melting point was > 72 °C (dec.).
With O=C(O)COc1c(Br)cc(C(=O)NCCc2ccccn2)cc1-c1cccc(Cl)c1 [Example 56, [3-Bromo-3′-chloro-5-(2-pyridin-2-yl-ethylcarbamoyl)-biphenyl-2-yloxy]acetic acid] the melting point was > 102 °C (dec.).
In the case of O=C(O)COc1c(-c2cccc(Cl)c2)cc(C(=O)N(CCc2ccccc2)Cc2ccccc2)cc1-c1cccc(C(F)(F)F)c1 [Example 57, [5′-(Benzyl-phenethyl-carbamoyl)-3″-chloro-3-trifluoromethyl-[1,1′;3′,1″]terphenyl-2′-yloxy]acetic acid], the melting point is reported as > 75 °C (dec.).
With O=C(O)COc1c(-c2cccc(Cl)c2)cc(C(=O)NCCc2ccccn2)cc1-c1cccc(C(F)(F)F)c1 [Example 58, [3″-Chloro-5′-(2-pyridin-2-yl-ethylcarbamoyl)-3-trifluoromethyl-[1,1′;3′,1″]terphenyl-2′-yloxy]acetic acid] the melting point was > 92 °C (dec.).
With O=C(O)COc1c(-c2cccc(Cl)c2)cc(C(=O)NCCCc2ccccc2)cc1-c1cccc(C(F)(F)F)c1 [Example 59, [3″-Chloro-5′-(3-phenyl-propylcarbamoyl)-3-trifluoromethyl-[1,1′;3′,1″]terphenyl-2′-yloxy]acetic acid] the melting point was > 106 °C (dec.).
Compound O=C(O)COc1c(-c2cccc(Cl)c2)cc(C(=O)NCCCC2CCCC2)cc1-c1cccc(C(F)(F)F)c1 [Example 61, [3″-Chloro-5′-(3-cyclopentyl-propylcarbamoyl)-3-trifluoromethyl-[1,1′;3′,1″]-terphenyl-2′-yloxy]acetic acid] has a melting point of 173 to 175 °C.
In the case of O=C(O)COc1c(Br)cc(C(=O)NCCCC2CCCC2)cc1-c1cccc(Cl)c1 [Example 62, [3-Bromo-3′-chloro-5-(3-cyclopentyl-propylcarbamoyl)-biphenyl-2-yloxy]acetic acid], the melting point is reported as > 135 °C (dec.).
In the case of O=C(O)COc1c(-c2cccc(Cl)c2)cc(C(=O)NCCc2ccc(Br)cc2)cc1-c1cccc(C(F)(F)F)c1 [Example 63, {5′-[2-(4-Bromo-phenyl)-ethylcarbamoyl]-3″-chloro-3-trifluoromethyl-[1,1′;3′,1″]-terphenyl-2′-yloxy}acetic acid], the melting point is reported as > 102 °C (dec.).
In the case of COc1ccc(-c2cc(C(=O)NCCc3ccccn3)cc(-c3cccc(C(F)(F)F)c3)c2OCC(=O)O)cc1 [Example 65, [4″-Methoxy-5′-(2-pyridin-2-yl-ethylcarbamoyl)-3-trifluoromethyl-[1,1′;3′,1″]-terphenyl-2′-yloxy]acetic acid], the melting point is reported as > 105 °C (dec.).
In the case of COc1ccc(-c2cc(C(=O)NCCCC3CCCC3)cc(-c3cccc(C(F)(F)F)c3)c2OCC(=O)O)cc1 [Example 66, [5′-(3-Cyclopentyl-propylcarbamoyl)-4″-methoxy-3-trifluoromethyl-[1,1′;3′,1″]-terphenyl-2′-yloxy]acetic acid], the melting point is reported as > 114 °C (dec.).
For COc1ccc(-c2cc(C(=O)N(CCc3ccccc3)Cc3ccccc3)cc(-c3cccc(C(F)(F)F)c3)c2OCC(=O)O)cc1 [Example 67, [5′-(Benzyl-phenethyl-carbamoyl)-4″-methoxy-3-trifluoromethyl-[1,1′;3′,1″]-terphenyl-2′-yloxy]acetic acid], the melting point was > 82 °C (dec.).
For COc1ccc(-c2cc(C(=O)N(CCc3ccccc3)Cc3ccccc3)cc(-c3ccccc3F)c2OCC(=O)O)cc1 [Example 68, [5′-(Benzyl-phenethyl-carbamoyl)-2-fluoro-4″-methoxy-[1,1′;3′,1″]-terphenyl-2′-yloxy]acetic acid], the melting point was > 73 °C (dec.).
